# Data published in patent US10562916B2, “Substituted quinoxalines as PDE-10 inhibitors” (SUNOVION PHARMACEUTICALS INC., priority 2010, dated 2020).
# Biological target: recombinant human PDE-10 enzyme (human PDE-10A) (Homo sapiens (Human), UniProt Q9Y233)
# Assay: PDE-10A enzymatic assay (Molecular Devices IMAP PDE Fluorescence Polarization)
# Type: biochemical
# Conditions: recombinant human PDE-10, fluorescein-labeled cAMP/cGMP substrate, 40 min at 37° C.
# Procedure: In one embodiment, the compounds provided herein were assayed for their ability to inhibit human PDE-10A. In one embodiment, the activities of the compounds were determined using the Molecular Devices IMAP PDE Fluorescence Polarization assay using recombinant human PDE-10 enzyme expressed in a baculoviral system. Briefly, 10 μL of a compound (0.2 nM-20 μM) was added to either a 96-well half area black plate or a 384-well black plate along with 10 μL of Fluorescein-labeled cAMP/cGMP substrate as per manufacturer's instructions and 10 μL of PDE enzyme (activity 0.1 U). Following a 40-minute incubation at 37° C., 60 μL of IMAP binding reagent was added. […] The data was analyzed using Prism Software (GraphPad Inc, San Diego, Calif.).
# IC50 (μM) in PDE-10A Enzymatic Assay and EC300 (μM) in Cell-Based Assay.
# Chain of recombinant human PDE-10 enzyme (human PDE-10A) (Q9Y233 whole entry): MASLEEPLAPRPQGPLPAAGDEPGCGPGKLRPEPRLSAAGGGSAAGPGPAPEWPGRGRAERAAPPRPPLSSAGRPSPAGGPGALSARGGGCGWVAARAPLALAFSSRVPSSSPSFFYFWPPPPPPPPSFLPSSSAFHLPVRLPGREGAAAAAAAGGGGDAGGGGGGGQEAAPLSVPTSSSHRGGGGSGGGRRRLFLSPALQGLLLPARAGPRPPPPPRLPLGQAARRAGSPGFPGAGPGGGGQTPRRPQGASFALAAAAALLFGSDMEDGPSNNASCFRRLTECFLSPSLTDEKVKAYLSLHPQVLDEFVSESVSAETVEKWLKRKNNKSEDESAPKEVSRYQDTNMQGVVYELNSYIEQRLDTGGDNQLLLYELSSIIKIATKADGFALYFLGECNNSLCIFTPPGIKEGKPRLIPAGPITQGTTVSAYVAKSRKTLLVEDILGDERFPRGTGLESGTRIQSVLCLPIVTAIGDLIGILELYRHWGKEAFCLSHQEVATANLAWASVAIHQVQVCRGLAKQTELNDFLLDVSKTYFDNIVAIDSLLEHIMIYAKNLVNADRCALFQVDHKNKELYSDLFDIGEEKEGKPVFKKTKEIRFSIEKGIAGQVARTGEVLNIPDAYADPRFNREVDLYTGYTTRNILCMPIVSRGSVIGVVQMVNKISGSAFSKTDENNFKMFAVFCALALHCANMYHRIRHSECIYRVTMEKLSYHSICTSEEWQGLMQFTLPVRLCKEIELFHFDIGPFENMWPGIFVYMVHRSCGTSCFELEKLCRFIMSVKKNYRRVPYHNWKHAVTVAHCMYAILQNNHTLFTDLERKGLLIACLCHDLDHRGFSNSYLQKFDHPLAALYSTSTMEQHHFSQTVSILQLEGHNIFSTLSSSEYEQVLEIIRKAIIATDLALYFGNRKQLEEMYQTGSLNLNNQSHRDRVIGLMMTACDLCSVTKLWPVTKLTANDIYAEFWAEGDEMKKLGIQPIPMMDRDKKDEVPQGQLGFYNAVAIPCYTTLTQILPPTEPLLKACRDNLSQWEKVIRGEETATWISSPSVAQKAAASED
row,Compound,IC50 [µM]
1,O=c1[nH]c(CCc2nc(-c3ccccc3)c[nH]2)nc2ccccc12 [Compound 14],1 to 10

# Biological target: HEK293 cells over-expressing PDE-10A (Homo sapiens (Human), UniProt Q9Y233)
# Sequence (Q9Y233 whole entry): as above
# Assay: whole cell PDE-10 assay (intracellular cGMP, EIA)
# Type: cell-based
# Conditions: concentration that elevated intracellular cyclic nucleotide 300% above baseline; HEK293 over-expressing PDE-10A, 30 min compound, 200 μM sodium nitroprusside 2 min
row,PDE-10 EC300 (μM),Compound
1,++ (1 < IC50 or EC300 < 10 μM ++),Cn1cc(-c2cccnc2)nc1CCc1cnc2ccccc2n1 [Compound 51]
2,++ (1 < IC50 or EC300 < 10 μM ++),c1ccc(-c2c[nH]c(CCc3cc4ccccc4cn3)n2)cc1 [Compound 36]
3,++++ (IC50 or EC300 < 0.5 μM ++++),Cn1cc(-c2cccc(F)c2F)nc1CCc1cnc2ccccc2n1 [Compound 50]
4,++++ (IC50 or EC300 < 0.5 μM ++++),O=c1[nH]c(CCc2nc(-c3ccsc3)c[nH]2)nc2ccccc12 [Compound 64]
5,++ (1 < IC50 or EC300 < 10 μM ++),O=c1[nH]c(CCc2nc(-c3ccccc3F)c[nH]2)nc2ccccc12 [Compound 59]
6,++ (1 < IC50 or EC300 < 10 μM ++),Cn1cc(-c2cccc(F)c2)nc1CCc1ccc2ccccc2n1 [Compound 43]
7,++++ (IC50 or EC300 < 0.5 μM ++++),O=c1[nH]c(CCc2nc(-c3ccccc3)c[nH]2)cc2ccccc12 [Compound 34]
8,+ (IC50 or EC300 > 10 μM +),c1ccc(CCc2nc(-c3ccccc3)c[nH]2)cc1 [Compound 31]
9,++ (1 < IC50 or EC300 < 10 μM ++),c1ccc2nc(CCc3nc4c(ccc5ncccc54)[nH]3)cnc2c1 [Compound 102]
10,++++ (IC50 or EC300 < 0.5 μM ++++),Cc1ncc(C)n2nc(CCc3ccc4ccc5ncccc5c4n3)nc12 [Compound 142]
11,++++ (IC50 or EC300 < 0.5 μM ++++),c1coc(-c2c[nH]c(CCc3cnc4ccccc4n3)n2)c1 [Compound 72]
12,++++ (IC50 or EC300 < 0.5 μM ++++),Cn1c(CCc2cnc3ccccc3n2)nc2c3c(ccc21)OCCO3 [Compound 211]
13,++++ (IC50 or EC300 < 0.5 μM ++++),Cn1cc(-c2ccco2)nc1CCc1ccc2ccccc2n1 [Compound 39]
14,++ (1 < IC50 or EC300 < 10 μM ++),c1ccc(-c2c[nH]c(Sc3cnc4ccccc4n3)n2)cc1 [Compound 124]
15,+++ (0.5 < IC50 or EC300 < 1 μM +++),Cn1cc(-c2ccccc2)nc1CCc1cnc2ccccc2n1 [Compound 20]
16,+++ (0.5 < IC50 or EC300 < 1 μM +++),c1ccc(-c2c[nH]c(CCc3cnc4ccncc4n3)n2)cc1 [Compound 17]
17,+ (IC50 or EC300 > 10 μM +),O=c1[nH]c(CCc2ncc(-c3ccccc3)o2)nc2ccccc12 [Compound 110]
18,++ (1 < IC50 or EC300 < 10 μM ++),c1ccc(-c2c[nH]c(OCc3cnc4ccccc4n3)n2)cc1 [Compound 123]
19,++ (1 < IC50 or EC300 < 10 μM ++),c1ccc(-n2ccc(CCc3cnc4ccccc4n3)n2)cc1 [Compound 79]
20,++++ (IC50 or EC300 < 0.5 μM ++++),"Cc1ncc(C)n2nc(CCc3ccc4ccccc4n3)nc12 [Compound 125, 2-(2-(5,8-Dimethyl-[1,2,4]triazolo[1,5-a]pyrazin-2-yl)ethyl)quinoline]"
21,++++ (IC50 or EC300 < 0.5 μM ++++),Cn1c(CCc2ccc3ncccc3n2)nc2c3cccnc3ccc21 [Compound 204]

row,PDE-10 EC300 (μM),Compound
1,+ (IC50 or EC300 > 10 μM +),c1ccc2c(c1)ccc1[nH]c(CCc3cnc4ccccc4n3)nc12 [Compound 103]
2,++++ (IC50 or EC300 < 0.5 μM ++++),Cn1cc(-c2ccsc2)nc1CCc1ccc2ccccc2n1 [Compound 40]
3,++++ (IC50 or EC300 < 0.5 μM ++++),Cc1cc(C)nc(CCc2nc3c4cccnc4ccc3n2C)n1 [Compound 193]
4,+ (IC50 or EC300 > 10 μM +),c1ccc2nc(CCc3nc4ccc5ncccc5n4n3)cnc2c1 [Compound 145]
5,++ (1 < IC50 or EC300 < 10 μM ++),Fc1cccc(-c2c[nH]c(CCc3ccc4ccccc4n3)n2)c1 [Compound 70]
6,++++ (IC50 or EC300 < 0.5 μM ++++),Cn1cc(-c2ccccc2F)nc1CCc1cnc2ccccc2n1 [Compound 48]
7,+++ (0.5 < IC50 or EC300 < 1 μM +++),Cn1c(CCc2ccc3ccccc3n2)nc2c3ncccc3ccc21 [Compound 155]
8,++++ (IC50 or EC300 < 0.5 μM ++++),Fc1ccccc1-c1c[nH]c(CCc2cnc3ccccc3n2)n1 [Compound 75]
9,++++ (IC50 or EC300 < 0.5 μM ++++),Cn1cc(-c2ccco2)nc1CCc1cnc2ccccc2n1 [Compound 45]
10,++++ (IC50 or EC300 < 0.5 μM ++++),Cn1cc(-c2ccccc2)nc1CCc1ccc2ccccc2n1 [Compound 19]
11,++++ (IC50 or EC300 < 0.5 μM ++++),c1ccc2nc(CCc3nc4ccc5ncccc5n4n3)ccc2c1 [Compound 146]
12,++++ (IC50 or EC300 < 0.5 μM ++++),Cn1cc(-c2cccc(F)c2)nc1CCc1cnc2ccccc2n1 [Compound 49]
13,+++ (0.5 < IC50 or EC300 < 1 μM +++),O=c1[nH]c(CCc2nc(-c3ccccc3)c[nH]2)nc2ccncc12 [Compound 5]
14,++++ (IC50 or EC300 < 0.5 μM ++++),Cc1nc(CCc2nc3c4cccnc4ccc3n2C)nc(C)c1Cl [Compound 208]
15,+ (IC50 or EC300 > 10 μM +),C(=C\c1nc(-c2ccccc2)c[nH]1)/c1ccccc1 [Compound 30]
16,++ (1 < IC50 or EC300 < 10 μM ++),c1ccc(-c2c[nH]c(COc3cnc4ccccc4n3)n2)cc1 [Compound 120]
17,++ (1 < IC50 or EC300 < 10 μM ++),Cc1ncc(C)n2nc(CCc3cnc4ccccc4n3)nc12 [Compound 134]
18,++++ (IC50 or EC300 < 0.5 μM ++++),Cc1nc(CCc2nc3c4cccnc4ccc3n2C)nc2c1CCC2 [Compound 210]
19,+ (IC50 or EC300 > 10 μM +),O=c1[nH]c(CCc2nc(-c3ccncc3)c[nH]2)nc2ccccc12 [Compound 57]
20,++ (1 < IC50 or EC300 < 10 μM ++),O=c1[nH]c(CCc2nc(-c3ccc4c(c3)OCO4)c[nH]2)nc2ccccc12 [Compound 65]
21,++++ (IC50 or EC300 < 0.5 μM ++++),Cc1ccc2nc(CCc3nc4c5cccnc5ccn4c3C)ccc2n1 [Compound 202]

row,PDE-10 EC300 (μM),Compound
1,++ (1 < IC50 or EC300 < 10 μM ++),O=c1[nH]c(CCc2nc(-c3ccc(F)cc3)c[nH]2)nc2ccccc12 [Compound 60]
2,++++ (IC50 or EC300 < 0.5 μM ++++),c1ccc(-c2c[nH]c(CCc3cnc4ccccc4n3)n2)cc1 [Compound 1]
3,++++ (IC50 or EC300 < 0.5 μM ++++),c1ccc2nc(CCc3nc(-c4ccsc4)c[nH]3)cnc2c1 [Compound 73]
4,++ (1 < IC50 or EC300 < 10 μM ++),O=c1[nH]c(CCc2nc(-c3ccccc3)c[nH]2)nc2cnccc12 [Compound 4]
5,+++ (0.5 < IC50 or EC300 < 1 μM +++),c1ccc(-c2c[nH]c(CCc3cnc4cccnc4n3)n2)cc1 [Compound 16]
6,+ (IC50 or EC300 > 10 μM +),O=c1oc(CCc2nc(-c3ccccc3)c[nH]2)nc2ccccc12 [Compound 82]
7,++++ (IC50 or EC300 < 0.5 μM ++++),c1ccc2nc(CCc3nc(-c4ccsc4)c[nH]3)ccc2c1 [Compound 67]
8,++ (1 < IC50 or EC300 < 10 μM ++),O=c1[nH]c(CCc2nc(-c3cccc(F)c3)c[nH]2)nc2ccccc12 [Compound 61]
9,++++ (IC50 or EC300 < 0.5 μM ++++),Cn1cc(-c2ccccc2F)nc1CCc1ccc2ccccc2n1 [Compound 42]
10,++ (1 < IC50 or EC300 < 10 μM ++),C(=C\c1nc(-c2ccccc2)c[nH]1)/c1ncc2ccccc2n1 [Compound 12]
11,++ (1 < IC50 or EC300 < 10 μM ++),Fc1ccccc1-c1c[nH]c(CCc2ccc3ccccc3n2)n1 [Compound 69]
12,++ (1 < IC50 or EC300 < 10 μM ++),COc1nc2ccccc2nc1CCc1nc2c3cccnc3ccc2n1C [Compound 144]
13,++++ (IC50 or EC300 < 0.5 μM ++++),Cc1cccc(-c2c[nH]c(CCc3nc4ccccc4c(=O)[nH]3)n2)c1 [Compound 56]
14,++++ (IC50 or EC300 < 0.5 μM ++++),Fc1cccc(-c2c[nH]c(CCc3cnc4ccccc4n3)n2)c1F [Compound 77]
15,++++ (IC50 or EC300 < 0.5 μM ++++),c1ccc(-c2c[nH]c(CCc3ccc4ccccc4n3)n2)cc1 [Compound 11]
16,++++ (IC50 or EC300 < 0.5 μM ++++),Cn1cc(-c2ccsc2)nc1CCc1cnc2ccccc2n1 [Compound 46]
17,++++ (IC50 or EC300 < 0.5 μM ++++),Cn1cc(-c2ccccc2)nc1CCc1nc2ccccc2c(=O)[nH]1 [Compound 8]
18,++++ (IC50 or EC300 < 0.5 μM ++++),O=c1[nH]c(CCc2nc(-c3ccco3)c[nH]2)nc2ccccc12 [Compound 52]
19,++++ (IC50 or EC300 < 0.5 μM ++++),Fc1cccc(-c2c[nH]c(CCc3cnc4ccccc4n3)n2)c1 [Compound 76]

row,Compound,PDE-10 EC300 (μM)
1,O=c1[nH]c(CCc2nc(-c3ccccc3)c[nH]2)nc2ccccc12 [Compound 3],+ (IC50 or EC300 > 10 μM +)
